According to EP1007530B1, “6-O-SUBSTITUTED ERYTHROMYCIN COMPOUNDS AND METHOD FOR MAKING SAME” (ABBOTT LABORATORIES, priority 1996, dated 1997):
Converted amounts (≈) assume the structure as drawn.

Legend:
Assay in all cases: In vitro assay of antibacterial activity (agar dilution MIC)
Format in all cases: cell-based
Escherichia coli KNK 437 = settings: BHI agar, 35-37 °C, 20 to 24 hours, unit assumed
Description: (§1) Representative compounds of the present invention were assayed in vitro for antibacterial activity as follows: Twelve petri dishes containing successive aqueous dilutions of the test compound mixed with 10 mL of sterilized Brain Heart Infusion (BHI) agar (Difco 0418-01-5) were prepared. Each plate was inoculated with 1:100 (or 1:10 for slow-growing strains, such as Micrococcus and Streptococcus) dilutions of up to 32 different microorganisms, using a Steers replicator block. The inoculated plates were incubated at 35-37 °C for 20 to 24 hours, In addition, a control plate, using BHI agar containing no test compound, was prepared and incubated at the beginning and end of each test.
(§2) An additional plate containing a compound having known susceptibility patterns for the organisms being tested and belonging to the same antibiotic class as the test compound was also prepared and incubated as a further control, as well as to provide test-to-test comparability. Erythromycin A was used for this purpose.
(§3) After incubation, each plate was visually inspected. The minimum inhibitory concentration (MIC) was defined as the lowest concentration of drug yielding no growth, a slight haze, or sparsely isolated colonies on the inoculum spot as compared to the growth control. […]

[1] = tested on: Micrococcus luteus ATCC 9341; settings: BHI agar, 35-37 °C, 20 to 24 hours, unit assumed
Description: as §1, §2, §3

Candida albicans CCH 442 = settings: BHI agar, 35-37 °C, 20 to 24 hours, unit assumed
Description: as §1, §2, §3

[2] = tested on: Pseudomonas aeruginosa 5007; settings: BHI agar, 35-37 °C, 20 to 24 hours, unit assumed
Description: as §1, §2, §3

[3] = tested on: Staphylococcus aureus CMX 553; settings: BHI agar, 35-37 °C, 20 to 24 hours, unit assumed
Description: as §1, §2, §3

Escherichia coli DC-2 = settings: BHI agar, 35-37 °C, 20 to 24 hours, unit assumed
Description: as §1, §2, §3

[4] = tested on: Pseudomonas aeruginosa DPHD-2862; settings: BHI agar, 35-37 °C, 20 to 24 hours, unit assumed
Description: as §1, §2, §3

[5] = tested on: Providencia struartii CMX 640; settings: BHI agar, 35-37 °C, 20 to 24 hours, unit assumed
Description: as §1, §2, §3

[6] = tested on: Pseudomonas aeruginosa K799/61; settings: BHI agar, 35-37 °C, 20 to 24 hours, unit assumed
Description: as §1, §2, §3

[7] = tested on: Streptococcus agalactiae CMX 508; settings: BHI agar, 35-37 °C, 20 to 24 hours, unit assumed
Description: as §1, §2, §3

[8] = tested on: Staphylococcus aureus ATCC 6538P; settings: BHI agar, 35-37 °C, 20 to 24 hours, unit assumed
Description: as §1, §2, §3

[9] = tested on: Staphylococcus aureus A-5278; settings: BHI agar, 35-37 °C, 20 to 24 hours, unit assumed
Description: as §1, §2, §3

[10] = tested on: Pseudomonas aeruginosa K799/WT; settings: BHI agar, 35-37 °C, 20 to 24 hours, unit assumed
Description: as §1, §2, §3

[11] = tested on: Enterobacter aerogenes ATCC 13048; settings: BHI agar, 35-37 °C, 20 to 24 hours, unit assumed
Description: as §1, §2, §3

[12] = tested on: Micrococcus luteus ATCC 4698; settings: BHI agar, 35-37 °C, 20 to 24 hours, unit assumed
Description: as §1, §2, §3

Pseudomonas capacia 2961 = settings: BHI agar, 35-37 °C, 20 to 24 hours, in µg/mL (unit assumed)
Description: as §1, §2, §3

[13] = tested on: Staphylococcus aureus 1775; settings: BHI agar, 35-37 °C, 20 to 24 hours, unit assumed
Description: as §1, §2, §3

Escherichia coli JUHL = settings: BHI agar, 35-37 °C, 20 to 24 hours, in µg/mL (unit assumed)
Description: as §1, §2, §3

[14] = tested on: Pseudomonas aeruginosa DPHD-5263; settings: BHI agar, 35-37 °C, 20 to 24 hours, in µg/mL (unit assumed)
Description: as §1, §2, §3

[15] = tested on: Enterococcus faecium ATCC 8043; settings: BHI agar, 35-37 °C, 20 to 24 hours, unit assumed
Description: as §1, §2, §3

[16] = tested on: Staphylococcus aureus NCTC10649M; settings: BHI agar, 35-37 °C, 20 to 24 hours, unit assumed
Description: as §1, §2, §3

[17] = tested on: Staphylococcus epidermidis 3519; settings: BHI agar, 35-37 °C, 20 to 24 hours, unit assumed
Description: as §1, §2, §3

[18] = tested on: Streptococcus pyogenes PIU 2548; settings: BHI agar, 35-37 °C, 20 to 24 hours, unit assumed
Description: as §1, §2, §3

[19] = tested on: Staphylococcus aureus CMX 642A; settings: BHI agar, 35-37 °C, 20 to 24 hours, unit assumed
Description: as §1, §2, §3

Escherichia coli SS = settings: BHI agar, 35-37 °C, 20 to 24 hours, unit assumed
Description: as §1, §2, §3

[20] = tested on: Streptococcus pyogenes 930; settings: BHI agar, 35-37 °C, 20 to 24 hours, unit assumed
Description: as §1, §2, §3

[21] = tested on: Streptococcus bovis A-5169; settings: BHI agar, 35-37 °C, 20 to 24 hours, unit assumed
Description: as §1, §2, §3

[22] = tested on: Pseudomonas aeruginosa BMH10; settings: BHI agar, 35-37 °C, 20 to 24 hours, in µg/mL (unit assumed)
Description: as §1, §2, §3

Escherichia coli H560 = settings: BHI agar, 35-37 °C, 20 to 24 hours, unit assumed
Description: as §1, §2, §3

[23] = tested on: Klebsiella pneumoniae ATCC 8045; settings: BHI agar, 35-37 °C, 20 to 24 hours, unit assumed
Description: as §1, §2, §3

[24] = tested on: Staphylococcus aureus A5177; settings: BHI agar, 35-37 °C, 20 to 24 hours, unit assumed
Description: as §1
(§4) An additional plate containing a compound having known susceptibility patterns for the organisms being tested and belonging to the same antibiotic class as the test compound was also prepared and incubated as a further control, as well as to provide test-to-test comparability.
as §3

[25] = tested on: Streptococcus pyogenes EES61; settings: BHI agar, 35-37 °C, 20 to 24 hours, unit assumed
Description: as §1, §2, §3

[26] = tested on: Actinetobacter calcoaceticus CMX 669; settings: BHI agar, 35-37 °C, 20 to 24 hours, unit assumed
Description: as §1, §4, §3

[27] = tested on: Mycobacterium smegmatis ATCC 114; settings: BHI agar, 35-37 °C, 20 to 24 hours, unit assumed
Description: as §1, §2, §3

| Compound | MIC (Escherichia coli KNK 437) [µg/mL] | MIC [1] [µg/mL] | MIC (Candida albicans CCH 442) [µg/mL] | MIC [2] [µg/mL] | MIC [3] [µg/mL] | MIC (Escherichia coli DC-2) [µg/mL] | MIC [4] [µg/mL] | MIC [5] [µg/mL] | MIC [6] [µg/mL] | MIC [7] [µg/mL] | MIC [8] [µg/mL] | MIC [9] [µg/mL] | MIC [10] [µg/mL] | MIC [11] [µg/mL] | MIC [12] [µg/mL] | MIC (Pseudomonas capacia 2961) | MIC [13] [µg/mL] | MIC (Escherichia coli JUHL) | MIC [14] | MIC [15] [µg/mL] | also measured |
| --- | --- | --- | --- | --- | --- | --- | --- | --- | --- | --- | --- | --- | --- | --- | --- | --- | --- | --- | --- | --- | --- |
| CC[C@H]1OC(=O)[C@H](C)[C@@H](O[C@H]2C[C@@](C)(OC)[C@@H](O)[C@H](C)O2)[C@H](C)[C@@H](O[C@@H]2O[C@H](C)C[C@H](N(C)C)[C@H]2O)[C@](C)(O)C[C@@H](C)C(=O)[C@H](C)[C@@H](O)[C@]1(C)O [Ery. A, Erythromycin A, reference compound] | 100 (≈ 136 µM) | 0.05 (≈ 0.0681 µM) | > 100 | > 100 | 0.39 (≈ 0.531 µM) | > 100 | > 100 | > 100 | 1.56 (≈ 2.13 µM) | 0.05 (≈ 0.0681 µM) | 0.2 (≈ 0.273 µM) | > 100 | 100 (≈ 136 µM) | > 100 | 0.2 (≈ 0.273 µM) | > 100 | > 100 | > 100 | >100 | 0.05 (≈ 0.0681 µM) | MIC [16]: 0.39 µg/mL (≈ 0.531 µM); MIC [17]: 0.39 µg/mL (≈ 0.531 µM); MIC [18]: 3.1 µg/mL (≈ 4.22 µM); MIC [19]: 0.39 µg/mL (≈ 0.531 µM); MIC (Escherichia coli SS): 0.78 µg/mL (≈ 1.06 µM); MIC [20]: > 100 µg/mL; MIC [21]: 0.02 µg/mL (≈ 0.0273 µM); MIC [22]: > 100; MIC (Escherichia coli H560): 50 µg/mL (≈ 68.1 µM); MIC [23]: > 100 µg/mL; MIC [24]: 3.1 µg/mL (≈ 4.22 µM) |
| CCCO[C@]1(C)C[C@@H](C)C(=O)[C@H](C)[C@@H](O)[C@](C)(O)[C@@H](CC)OC(=O)[C@H](C)[C@@H](O[C@H]2C[C@@](C)(OC)[C@@H](O)[C@H](C)O2)[C@H](C)[C@H]1O[C@@H]1O[C@H](C)C[C@H](N(C)C)[C@H]1O [Example 2, Compound of Formula (X): X is =O, R is propyl] | > 100 | 0.2 | 0.1 | > 100 | 3.1 | > 100 | > 100 | > 100 | > 100 | 0.2 | 3.1 | > 100 | 6.2 | > 100 | 3.1 | 50 | > 100 | >100 | >100 | 3.1 | MIC [25]: 0.05 µg/mL; MIC [16]: 6.2 µg/mL; MIC [17]: 1.56 µg/mL; MIC [18]: 6.2 µg/mL; MIC [19]: 12.5 µg/mL; MIC (Escherichia coli SS): 1.56 µg/mL; MIC [20]: > 100 µg/mL; MIC [21]: 0.05 µg/mL; MIC [22]: >100; MIC (Escherichia coli H560): > 100 µg/mL; MIC [23]: > 100 µg/mL; MIC [24]: 25 µg/mL; MIC [26]: > 100 µg/mL |
| CC[C@H]1OC(=O)[C@H](C)[C@@H](O[C@H]2C[C@@](C)(OC)[C@@H](O)[C@H](C)O2)[C@H](C)[C@@H](O[C@@H]2O[C@H](C)C[C@H](N(C)C)[C@H]2O)[C@](C)(OCC=NO)C[C@@H](C)C(=O)[C@H](C)[C@@H](O)[C@]1(C)O [Example 12, Compound of Formula (X): X is =O, R is -CH2-CH=N-OH] | 100 | 0.05 | > 100 | > 100 | 0.39 | > 100 | > 100 | > 100 | 1.56 | 0.05 | 0.39 | > 100 | > 100 | > 100 | 0.78 | > 100 | > 100 | 50 | > 100 | 0.1 | MIC [25]: 0.05 µg/mL; MIC [27]: 0.78 µg/mL; MIC [16]: 0.39 µg/mL; MIC [17]: 0.39 µg/mL; MIC [18]: 12.5 µg/mL; MIC [19]: 0.39 µg/mL; MIC (Escherichia coli SS): 0.78 µg/mL; MIC [20]: > 100 µg/mL; MIC [21]: 0.05 µg/mL; MIC [22]: > 100; MIC (Escherichia coli H560): 25 µg/mL; MIC [26]: 12.5 µg/mL |
